In US10975056B2 (GlaxoSmithKline Intellectual Property Development Limited, priority 2016, dated 2021):
Read-outs that look alike come from different tables or passages of the source.

How the values were obtained:
[1] = molecular target: DNMT1 (Homo sapiens, UniProt P26358); assay: DNMT1 biochemical activity, breaklight assay and/or SPA assay
[2] = tested on: erythroid progenitor cells (EPCs); assay: Fetal hemoglobin (HbF) ELISA in day 7 erythroid progenitor cells; type: cell-based, human; details: Homo sapiens, Erythroid progenitor cell, HbF ELISA, day 7 EPCs, 5 days; read-out: EPC ELISA (pEC50 category) (converted);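 note: for fetal hemoglobin induction normalized to vehicle-treated cells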
Method in brief: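 HbF induction was read by anti-HbF sandwich ELISA (HRP/TMB, OD450) on lysates and normalized to vehicle-treated cells. Cells were day 7 erythroid progenitors derived from human bone marrow CD34+ cells, seeded at 1,000/well with 3 U/mL rhEPO. Compound was given for 5 days at 37 °C at final concentrations […].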

[3] = binned activity in either the breaklight or the SPA assay

Sequence of DNMT1 (P26358 whole entry, looked up): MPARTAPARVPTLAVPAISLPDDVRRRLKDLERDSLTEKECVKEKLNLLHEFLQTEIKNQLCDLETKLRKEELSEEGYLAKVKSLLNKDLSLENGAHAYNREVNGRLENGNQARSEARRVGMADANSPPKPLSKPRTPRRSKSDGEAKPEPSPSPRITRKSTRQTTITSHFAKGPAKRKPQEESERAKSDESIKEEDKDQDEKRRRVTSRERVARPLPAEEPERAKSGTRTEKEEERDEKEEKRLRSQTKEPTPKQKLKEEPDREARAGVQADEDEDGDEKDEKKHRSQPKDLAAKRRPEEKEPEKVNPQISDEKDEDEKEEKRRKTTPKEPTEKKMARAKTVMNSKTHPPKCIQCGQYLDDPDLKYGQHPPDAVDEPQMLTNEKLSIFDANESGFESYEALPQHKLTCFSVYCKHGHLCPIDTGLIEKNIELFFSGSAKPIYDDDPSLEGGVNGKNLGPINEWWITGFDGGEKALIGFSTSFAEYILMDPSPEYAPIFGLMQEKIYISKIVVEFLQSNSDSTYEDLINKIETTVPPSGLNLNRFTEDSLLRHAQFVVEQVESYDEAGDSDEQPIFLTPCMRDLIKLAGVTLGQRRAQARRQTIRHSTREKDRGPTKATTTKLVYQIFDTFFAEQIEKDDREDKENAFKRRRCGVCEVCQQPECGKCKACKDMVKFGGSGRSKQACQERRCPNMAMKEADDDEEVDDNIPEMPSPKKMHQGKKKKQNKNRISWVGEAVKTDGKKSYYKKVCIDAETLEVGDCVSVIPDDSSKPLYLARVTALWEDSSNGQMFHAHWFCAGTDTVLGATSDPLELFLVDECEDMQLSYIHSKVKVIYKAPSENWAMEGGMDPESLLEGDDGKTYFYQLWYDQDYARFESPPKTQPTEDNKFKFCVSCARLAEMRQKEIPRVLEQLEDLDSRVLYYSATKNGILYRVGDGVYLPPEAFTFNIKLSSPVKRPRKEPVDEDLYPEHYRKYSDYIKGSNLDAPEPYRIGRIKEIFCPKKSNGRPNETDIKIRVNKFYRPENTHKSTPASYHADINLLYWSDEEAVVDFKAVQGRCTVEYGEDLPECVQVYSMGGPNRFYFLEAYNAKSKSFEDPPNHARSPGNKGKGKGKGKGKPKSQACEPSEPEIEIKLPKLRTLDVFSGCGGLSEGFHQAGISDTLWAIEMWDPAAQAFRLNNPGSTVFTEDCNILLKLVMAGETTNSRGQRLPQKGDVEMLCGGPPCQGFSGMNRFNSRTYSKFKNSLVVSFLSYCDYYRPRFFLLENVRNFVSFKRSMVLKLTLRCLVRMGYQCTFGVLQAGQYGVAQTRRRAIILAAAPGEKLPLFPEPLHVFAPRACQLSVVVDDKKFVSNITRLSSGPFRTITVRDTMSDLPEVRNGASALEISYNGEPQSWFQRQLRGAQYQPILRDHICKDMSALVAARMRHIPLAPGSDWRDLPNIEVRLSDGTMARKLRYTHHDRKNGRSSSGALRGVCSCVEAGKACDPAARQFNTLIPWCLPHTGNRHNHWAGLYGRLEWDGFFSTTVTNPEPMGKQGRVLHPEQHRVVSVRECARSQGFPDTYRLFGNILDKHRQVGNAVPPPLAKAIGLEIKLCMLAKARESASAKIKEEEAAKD

Structure (SMILES) | DNMT1 BioChemical (pIC50 category) [1, 3] | EC50 [2] [nM] | average pIC50 against DNMT1 ([1]; breaklight assay and/or SPA assay, repeated experimental runs) | IC50 ([1]; breaklight assay and/or SPA assay, repeated experimental runs, read-out: average pIC50 against DNMT1 (converted)) [nM] | IC50 ([1]; binned activity in either the breaklight or the SPA assay, read-out: DNMT1 BioChemical (pIC50 category) (converted)) [nM]
CCc1c(C#N)c(SCc2ccc(N(C)S(C)(=O)=O)cc2)nc(N(C)CCN2CCCCC2)c1C#N [Example 577, N-(4-(((3,5-dicyano-4-ethyl-6-(methyl(2-(piperidin-1-yl)ethyl)amino)pyridin-2-yl)thio)methyl)phenyl)-N-methylmethanesulfonamide] | D (Category D: ≥6.5) | < 316 | – | – | –
CCc1c(C#N)c(SCc2ccc(N(C)S(C)(=O)=O)cc2)nc(N(C)CCN(CC)CC)c1C#N [Example 579, N-(4-(((3,5-dicyano-6-((2-(diethylamino)ethyl)(methyl)amino)-4-ethylpyridin-2-yl)thio)methyl)phenyl)-N-methylmethanesulfonamide] | D (Category D: ≥6.5) | < 316 | – | – | –
CCc1c(C#N)c(SCc2ccc(N(C)S(C)(=O)=O)cc2)nc(N2CCOC(CN(CC)CC)C2)c1C#N (stereo not shown) [Example 580, N-(4-(((3,5-dicyano-6-(2-((diethylamino)methyl)morpholino)-4-ethylpyridin-2-yl)thio)methyl)phenyl)-N-methylmethanesulfonamide] | D (Category D: ≥6.5) | < 316 | – | – | –
CCc1c(C#N)c(SCc2ccc(N(C)S(C)(=O)=O)cc2)nc(N2CCC(N3CCCC3)CC2)c1C#N [Example 582, N-(4-(((3,5-dicyano-4-ethyl-6-(4-(pyrrolidin-1-yl)piperidin-1-yl)pyridin-2-yl)thio)methyl)phenyl)-N-methylmethanesulfonamide] | D (Category D: ≥6.5) | < 316 | – | – | –
CCc1c(C#N)c(SCc2ccc(N(C)S(C)(=O)=O)cc2)nc(N2CCC(NC(=O)[C@@H](C)N)CC2)c1C#N [Example 584, (R)-2-amino-N-(1-(3,5-dicyano-4-ethyl-6-((4-(N-methylmethylsulfonamido)benzyl)thio)pyridin-2-yl)piperidin-4-yl)propanamide] | D (Category D: ≥6.5) | < 316 | – | – | –
CCc1c(C#N)c(SCc2ccc(N(C)S(C)(=O)=O)cc2)nc(N2CCC(NC(=O)[C@H](C)N)CC2)c1C#N [Example 585, (S)-2-amino-N-(1-(3,5-dicyano-4-ethyl-6-((4-(N-methylmethylsulfonamido)benzyl)thio)pyridin-2-yl)piperidin-4-yl)propanamide] | D (Category D: ≥6.5) | < 316 | – | – | –
CCc1c(C#N)c(SC(C(N)=O)c2ccccc2)nc(N2CCO[C@@H](CN)C2)c1C#N (stereo partly drawn) [Example 586, 2-((6-((S)-2-(aminomethyl)morpholino)-3,5-dicyano-4-ethylpyridin-2-yl)thio)-2-phenylacetamide] | D (Category D: ≥6.5) | < 316 | – | – | –
CCc1c(C#N)c(SCc2ccc(N(C)S(C)(=O)=O)cc2)nc(N2CCC(N)CC2)c1C#N [Example 587, N-(4-(((6-(4-aminopiperidin-1-yl)-3,5-dicyano-4-ethylpyridin-2-yl)thio)methyl)phenyl)-N-methylmethanesulfonamide] | D (Category D: ≥6.5) | < 316 | – | – | –
CCc1c(C#N)c(SCc2ccc(N(C)S(C)(=O)=O)cc2)nc(N2CCC(NC(=O)CN)CC2)c1C#N [Example 590, 2-amino-N-(1-(3,5-dicyano-4-ethyl-6-((4-(N-methylmethylsulfonamido)benzyl)thio)pyridin-2-yl)piperidin-4-yl)acetamide] | D (Category D: ≥6.5) | 1000 to 31600 | – | – | –
CCc1c(C#N)c(SCc2ccc(N(C)S(C)(=O)=O)cc2)nc(N2CCOC(CN)C2)c1C#N (stereo not shown) [Example 591, N-(4-(((6-(2-(aminomethyl)morpholino)-3,5-dicyano-4-ethylpyridin-2-yl)thio)methyl)phenyl)-N-methylmethanesulfonamide] | D (Category D: ≥6.5) | < 316 | – | – | –
CCc1c(C#N)c(SCc2ccc(N(C)S(=O)(=O)CF)cc2)nc(N2CCCN(C)CC2)c1C#N [Example 595, N-(4-(((3,5-dicyano-4-ethyl-6-(4-methyl-1,4-diazepan-1-yl)pyridin-2-yl)thio)methyl)phenyl)-1-fluoro-N-methylmethanesulfonamide] | D (Category D: ≥6.5) | < 316 | – | – | –
CCc1c(C#N)c(SCc2ccc(N(C)S(C)(=O)=O)cc2)nc(N2CCOC(CNC)C2)c1C#N (stereo not shown) [Example 596, N-(4-(((3,5-dicyano-4-ethyl-6-(2-((methylamino)methyl)morpholino)pyridin-2-yl)thio)methyl)phenyl)-N-methylmethanesulfonamide] | D (Category D: ≥6.5) | 316 to 1000 | – | – | –
CCc1c(C#N)c(SCc2ccc(N(C)S(C)(=O)=O)cc2)nc(N2CCCC(CN(C)C)C2)c1C#N (stereo not shown) [Example 597, N-(4-(((3,5-dicyano-6-(3-((dimethylamino)methyl)piperidin-1-yl)-4-ethylpyridin-2-yl)thio)methyl)phenyl)-N-methylmethanesulfonamide] | D (Category D: ≥6.5) | < 316 | – | – | –
CCc1c(C#N)c(SCc2ccc(N3CCCS3(=O)=O)cc2)nc(N2CCC(N)CC2)c1C#N [Example 600, 2-(4-aminopiperidin-1-yl)-6-((4-(1,1-dioxidoisothiazolidin-2-yl)benzyl)thio)-4-ethylpyridine-3,5-dicarbonitrile] | D (Category D: ≥6.5) | > 31600 | – | – | –
CCc1c(C#N)c(SCc2ccc(N3CCCCS3(=O)=O)cc2)nc(N2CCC(N)CC2)c1C#N [Example 601, 2-(4-aminopiperidin-1-yl)-6-((4-(1,1-dioxido-1,2-thiazinan-2-yl)benzyl)thio)-4-ethylpyridine-3,5-dicarbonitrile] | D (Category D: ≥6.5) | > 31600 | – | – | –

Continued, values first:

DNMT1 BioChemical (pIC50 category) [1, 3] | EC50 [2] [nM] | average pIC50 against DNMT1 ([1]; breaklight assay and/or SPA assay, repeated experimental runs) | IC50 ([1]; breaklight assay and/or SPA assay, repeated experimental runs, read-out: average pIC50 against DNMT1 (converted)) [nM] | IC50 ([1]; binned activity in either the breaklight or the SPA assay, read-out: DNMT1 BioChemical (pIC50 category) (converted)) [nM] | Structure (SMILES)
D (Category D: ≥6.5) | < 316 | – | – | – | CCc1c(C#N)c(SC(C(N)=O)c2ccccc2)nc(N2CCO[C@H](CN(CC)CC)C2)c1C#N (stereo partly drawn) [Example 578, 2-((3,5-dicyano-6-((R)-2-((diethylamino)methyl)morpholino)-4-ethylpyridin-2-yl)thio)-2-phenylacetamide]
D (Category D: ≥6.5) | < 316 | – | – | – | CCc1c(C#N)c(SC(C(N)=O)c2ccccc2)nc(N2CCO[C@H](CNC(=O)C(C)(C)N)C2)c1C#N (stereo partly drawn) [Example 581, 2-amino-N-(((2R)-4-(6-((2-amino-2-oxo-1-phenylethyl)thio)-3,5-dicyano-4-ethylpyridin-2-yl)morpholin-2-yl)methyl)-2-methylpropanamide]
D (Category D: ≥6.5) | < 316 | – | – | – | CCc1c(C#N)c(SC(C(N)=O)c2ncccc2F)nc(N2CCC(N)CC2)c1C#N (stereo not shown) [Example 583, 2-((6-(4-aminopiperidin-1-yl)-3,5-dicyano-4-ethylpyridin-2-yl)thio)-2-(3-fluoropyridin-2-yl)acetamide]
D (Category D: ≥6.5) | < 316 | – | – | – | CCc1c(C#N)c(SC(C(N)=O)c2ccccc2)nc(N2CCC[C@@H](CNC(=O)C(C)(C)N)C2)c1C#N (stereo partly drawn) [Example 588, 2-amino-N-(((3S)-1-(6-((2-amino-2-oxo-1-phenylethyl)thio)-3,5-dicyano-4-ethylpyridin-2-yl)piperidin-3-yl)methyl)-2-methylpropanamide]
D (Category D: ≥6.5) | 316 to 1000 | – | – | – | CCc1c(C#N)c(SC(C(N)=O)c2ccccc2)nc(N2CCC[C@@H](CNC(=O)CN)C2)c1C#N (stereo partly drawn) [Example 589, 2-amino-N-(((3S)-1-(6-((2-amino-2-oxo-1-phenylethyl)thio)-3,5-dicyano-4-ethylpyridin-2-yl)piperidin-3-yl)methyl)acetamide]
D (Category D: ≥6.5) | < 316 | > 6.5 | 158 | – | CCc1c(C#N)c(SC(C(N)=O)c2ccccc2)nc(N2CCO[C@H](CNC(=O)CN)C2)c1C#N (stereo partly drawn) [Example 592, 2-amino-N-(((2R)-4-(6-((2-amino-2-oxo-1-phenylethyl)thio)-3,5-dicyano-4-ethylpyridin-2-yl)morpholin-2-yl)methyl)acetamide]
– | < 316 | – | – | < 316 | CCc1c(C#N)c(SC(C(N)=O)c2ccc(F)cc2)nc(N2CCC[C@H](CN)C2)c1C#N (stereo partly drawn) [Example 593, 2-((6-((R)-3-(aminomethyl)piperidin-1-yl)-3,5-dicyano-4-ethylpyridin-2-yl)thio)-2-(4-fluorophenyl)acetamide]
D (Category D: ≥6.5) | < 316 | – | – | – | CCc1c(C#N)c(SC(C(N)=O)c2ccc(F)cc2)nc(N2CCC[C@H](CNCC(C)(C)C)C2)c1C#N (stereo partly drawn) [Example 594, 2-((3,5-dicyano-4-ethyl-6-((R)-3-((neopentylamino)methyl)piperidin-1-yl)pyridin-2-yl)thio)-2-(4-fluorophenyl)acetamide]
D (Category D: ≥6.5) | 1000 to 31600 | – | – | – | CCc1c(C#N)c(SC(C(N)=O)c2ccccc2)nc(N2CCO[C@@H](CNC(=O)CN)C2)c1C#N (stereo partly drawn) [Example 598, 2-amino-N-(((2S)-4-(6-((2-amino-2-oxo-1-phenylethyl)thio)-3,5-dicyano-4-ethylpyridin-2-yl)morpholin-2-yl)methyl)acetamide]
D (Category D: ≥6.5) | 1000 to 31600 | – | – | – | CCc1c(C#N)c(S[C@@H](C(N)=O)c2ccccc2)nc(N2CCO[C@H](CNC(=O)CO)C2)c1C#N [Example 599, N-(((R)-4-(6-(((R)-2-amino-2-oxo-1-phenylethyl)thio)-3,5-dicyano-4-ethylpyridin-2-yl)morpholin-2-yl)methyl)-2-hydroxyacetamide]
